Entries after “also recorded” stand apart in the source; their conditions may differ.
Tests used:
[1] = test system: HepG2 cells; assay: Cell viability in HepG2 cells under SRE-luc conditions; format: cell-based, human; conditions: conditions of SRE-luc measurements
From the text: Figure 5. Lipogenic response of HepG2 cells to treatment with liver X receptor (LXR) ligands. […] See Figure 3—figure supplement 1 for biological replicates. […] See Figure 5—figure supplement 1 for full concentration-response curves. Figure 5—figure supplement 1. Response of HepG2 cells to treatment with liver X receptor (LXR) ligands. (A–B) Lipogenic response of HepG2 cells to treatment with liver X receptor (LXR) ligands showing full concentration-response curves for biphenyl compounds shown in Figure 5E–F. (C) Cell viability in HepG2 cells under identical conditions to those used to obtain sterol response element (SRE)-luc data. [drawing 5]

[2] = target: T1, LXRα (Homo sapiens, UniProt Q13133); assay: SRC-1 coactivator recruitment to LXRα, coregulator TR-FRET (CRT); format: biochemical; set-up: The CRT selectivity assay incorporates GST-tagged LXR-LBD; purchased Thermo Fisher Scientific PV4657; conditions: maximal response relative to T0 (100%)
T1 sequence (Q13133 209-447 limits assumed): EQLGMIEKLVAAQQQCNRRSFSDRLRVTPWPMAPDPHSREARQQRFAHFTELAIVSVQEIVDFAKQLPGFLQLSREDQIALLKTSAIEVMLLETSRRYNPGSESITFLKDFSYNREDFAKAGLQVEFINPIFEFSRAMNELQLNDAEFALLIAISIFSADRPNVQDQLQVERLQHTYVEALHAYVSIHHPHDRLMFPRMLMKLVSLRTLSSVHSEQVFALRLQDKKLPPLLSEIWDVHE

[3] = target: T2, LXRβ (Homo sapiens, UniProt P55055); assay: SRC-1 coactivator recruitment to LXRβ, coregulator TR-FRET (CRT); format: biochemical; set-up: The CRT selectivity assay incorporates GST-tagged LXR-LBD; purchased Thermo Fisher Scientific PV4660; conditions: for LXR isoform selectivity from SRC-1 CRT: LXRβ versus LXRα
T2 sequence (P55055 222-460 limits assumed): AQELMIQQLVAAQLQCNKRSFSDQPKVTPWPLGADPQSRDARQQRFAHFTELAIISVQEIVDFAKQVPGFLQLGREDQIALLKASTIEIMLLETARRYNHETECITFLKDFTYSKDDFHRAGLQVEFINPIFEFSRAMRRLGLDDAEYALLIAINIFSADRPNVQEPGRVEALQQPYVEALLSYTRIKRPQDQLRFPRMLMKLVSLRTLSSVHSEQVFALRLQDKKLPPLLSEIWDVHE

[4] = test system: sterol response element (SRE); assay: SRE-luc reporter assay in HepG2 cells; format: cell-based, human
From the text: Our phenotypic high-throughput screen (HTS) approach to identify nonlipogenic ABCA1 Inducers (NLAI) originally used counterscreening with a SREBP1c-luciferase reporter (linked to the SREBF1 gene promoter) in human hepatocarcinoma HepG2 cells ([Ben Aissa et al., 2021]). Unwanted lipogenesis is mediated by LXR agonists via direct transcriptional activation and indirectly by the effects of SREBP1c ([Schultz et al., 2000]; [Brown and Goldstein, 1997]). SREBP1c enhances transcription of genes required for synthesis of fatty acids and TG and as the dominant isoform in liver is associated most closely with lipogenesis and TG elevation ([Brown and Goldstein, 1997]). […] Binding of SREBP1c to the sterol response element (SRE) induces transcription of lipogenic genes associated with elevated TG. To better model the lipogenic axis in hepatocytes, we use HepG2 cells stably transfected with a nanoluciferase reporter downstream of a SRE promoter (SRE-luc), activation of which requires SREBP1c maturation.
HepG2 cells were cotransfected with SRE (LDLR)-NlucP SuperPiggyBac Transposon and a separate Transposase plasmid (System Biosciences). Cells were expanded for multiple passages followed by selection with puromycin (1 μg/ml). Stable cells constitutively express GFP allowed for FACS enrichment and/or cell cloning. Initially, stable pools were compared to low expressing and high expressing enriched pools. The optimal pool was selected based on assay performance (Z’) and was grown and maintained as above, with the addition of 1.0 μg/mL of puromycin biweekly.
Cells were split into flasks containing CS medium (EMEM supplemented with 10% charcoal stripped FBS (Gibco A52567-01)) and 1% P/S and grown at 37 °C /5% CO2 for 48 hr before plating. Cells were plated in 384-well, white clear tissue culture plates (Greiner 781098) and allowed to grow at 37 °C /5% CO2 for 24 hr before medium was aspirated and compound dilutions prepared in CS medium were added. Following a 24 hr incubation, the medium was aspirated, and cells were lysed/luminescence quantified using the Nano-Glo Luciferase Assay System (Promega N1130).

[5] = test system: ABCA1; assay: ABCA1-luc reporter assay in CCF-STTG1 astrocytoma cells; format: cell-based, human; conditions: for ABCA1 induction response/phenotype in CCF cells: normalized to T0
From the text: Astrocytoma CCF-STTG1 cells, stably transfected with an ABCA1-promoter linked to a luciferase response element, provide a model for ABCA1 induction in astrocytes ([Ben Aissa et al., 2021]). […] Apparent inverse agonist activity in cell-based assays can result from ‘true’ inverse agonist recruitment of corepressors or from antagonist activity towards endogenous sterol LXR agonists. Although we use serum-stripped media, antagonism of endogenous LXR agonists cannot be ruled out.
Low passage CCF-STTG1 cells (20,000 cells/well) were seeded in 96-well plates in media containing charcoal-stripped FBS and incubated at 37 °C and 5% CO2 for 24 hr prior to a 24 hr treatment. All compounds were dissolved in DMSO, and final DMSO concentrations never exceeded 1%. After a 24 hr incubation period, add a volume of ONE-GLOEX Reagent that is equal to the volume of culture medium in each well and incubate for 3–5 min on the shaker. The luminescent activity of compounds ([…], 10-fold dilution) was examined using the ONE-GLOEX assay (Promega). […] The assays were performed in duplicates for each concentration, and the EC50 values were determined from non-linear regression analysis of the dose-response curve generated in GraphPad Prism 9.

[6] = test system: LXR; assay: Corepressor (NCOR2, SMRT2) binding to LXR, CRT, statements across isoforms; format: biochemical; conditions: monoplex CRT, absence of coactivator
[7] = target: T1, LXRα; assay: NCOR2 corepressor binding to LXRα, CRT; format: biochemical; set-up: The CRT selectivity assay incorporates GST-tagged LXR-LBD; purchased Thermo Fisher Scientific PV4657; conditions: for activity at 1 µM: ligand 1 µM, interpolated from concentration-response, normalized, heat map Figure 9A, read-out: NCOR2α, relative % activity at 1 μM
[8] = target: T2, LXRβ; assay: NCOR2 corepressor binding to LXRβ, CRT; format: biochemical; set-up: The CRT selectivity assay incorporates GST-tagged LXR-LBD; purchased Thermo Fisher Scientific PV4660; conditions: for activity at 1 µM: ligand 1 µM, interpolated from concentration-response, normalized, heat map Figure 9A, read-out: NCOR2β, relative % activity at 1 μM
[9] = target: T1, LXRα; assay: SMRT2 corepressor binding to LXRα, CRT; format: biochemical; set-up: The CRT selectivity assay incorporates GST-tagged LXR-LBD; purchased Thermo Fisher Scientific PV4657; conditions: ligand 1 µM, interpolated from concentration-response, normalized; heat map Figure 9A; read-out: SMRT2α, relative % activity at 1 μM
[10] = target: T2, LXRβ; assay: SMRT2 corepressor binding to LXRβ, CRT; format: biochemical; set-up: The CRT selectivity assay incorporates GST-tagged LXR-LBD; purchased Thermo Fisher Scientific PV4660; conditions: ligand 1 µM, interpolated from concentration-response, normalized; heat map Figure 9A; read-out: SMRT2β, relative % activity at 1 μM
[11] = test system: LXR; assay: Categorization of ligands by CRT/pCRT signature; format: biochemical; conditions: response at 1 µM ligand compared with theoretical signatures
From the text: With the knowledge that, in pCRT, corepressors bind to the apo-receptor; whereas coactivator binding requires a ligand-induced conformational change, we can categorize all ligands using their CRT profiles. Ligands induce three LXR conformational ensembles with CoR (destabilizing D, stabilizing S, neutral N) and only two conformations with CoA (stabilizing S, neutral N) (Figure 9 (Table 1)). In categorizing ligands based upon these CRT characteristics, labels are needed.
The category for each ligand is not always identical for LXRα vs. LXRβ. Similarly, the phenotype associated with each classification is isoform dependent. Recruitment of CoA to LXRβ by FA, WA, and PA will activate transcription; whereas, lack of recruitment by SA, HA, and RA will antagonize transcription (Figure 9 (Table 1)). Stabilization of CoA and/or destabilization of CoR bound to LXRα is a derepression mechanism leading to activation/transcription for FA, WA, and RA; whereas partial activation is expected for PA.
To determine which LXR ligands fit with these theoretical CRT signatures, concentration-response curves were interpolated to measure normalized response at 1 µM ligand concentration and plotted as a heat map (Figure 9A).

[12] = test system: Tg2576 familial Alzheimer’s disease (FAD) mice; set-up: method as in Stachel et al., 2016; conditions: subcutaneous, 3 weeks, 50 mg/kg/day; ref Stachel et al., 2016; cited from earlier work
[13] = test system: monkeys; set-up: method as in Stachel et al., 2016; conditions: 20 mg/kg qd p.o., 2 weeks, ref Stachel et al., 2016, cited from earlier work
[14] = test system: Hamsters; set-up: method as in Groot et al., 2005; conditions: ref Groot et al., 2005; cited from earlier work
[15] = test system: cynomolgus monkeys; set-up: method as in Groot et al., 2005; conditions: ref Groot et al., 2005; cited from earlier work

Row | SMILES | activity at 1 µM [7] | activity at 1 µM [8] | activity at 1 µM [9] | activity at 1 µM [10] | LXR isoform selectivity from SRC-1 CRT [3] | SRE activation response/phenotype in HepG2 [4] | ABCA1 induction response/phenotype in CCF cells [5] | Corepressor (NCOR2, SMRT2) displacement or stabilization, across LXR isoforms [6] | also measured
1 | CC(C)C(O)CC[C@@H](C)[C@H]1CC[C@H]2[C@@H]3CC=C4C[C@@H](O)CC[C@]4(C)[C@H]3CC[C@]12C (stereo partly drawn) [24HC, 24-hydroxycholesterol] | – | – | – | – | nonselective | – | – | – | HepG2 cell viability/cytotoxicity [1]: cytotoxic at higher concentrations; Efficacy profile for SRC-1 recruitment to LXRα [2]: partial agonist; Efficacy profile for SRC-1 recruitment to LXRβ ([3]; maximal response relative to T0 (100%)): partial agonist
2 | CCOC(=O)Cn1nc(C(F)(F)F)cc1-c1ccc(-c2cccc(S(C)(=O)=O)c2)cc1 [ALX101] | 100% | 105% | 87.3% | 91.1% | – | partial agonist of SRE activation | full agonist towards ABCA1 induction | less effective or ineffective in displacement of corepressors from LXRα | –
3 | Cc1cc(C)c(S(=O)(=O)N(Cc2ccc(-c3cccc(S(C)(=O)=O)c3)cc2)Cc2ccccc2F)c(C)c1 [BE1218] | 100% | 105% | 91.8% | 81.6% | most selective LXRβ agonists | partial agonist phenotype in both cell-based assays | partial agonist phenotype in both cell-based assays; also recorded: partial agonist response | ineffective in corepressor displacement from LXRα | Selectivity for ABCA1 induction versus SRE activation (potency correlation outliers) ([5]; CCF ABCA1-luc versus HepG2 SRE-luc): selectivity for ABCA1 induction
4 | COc1ccc(NC2=C(c3ccccc3)C(=O)N(Cc3ccccc3)C2=O)cc1 [GSK3987] | 97.7% | 97.4% | 69.9% | 84% | weakly selective for LXRβ | – | – | strong agonist responses | CRT/pCRT signature category [11]: FA (full agonist (FA))

Now from value to compound, other results behind:

Row | activity at 1 µM [7] | activity at 1 µM [8] | activity at 1 µM [9] | activity at 1 µM [10] | SMILES | LXR isoform selectivity from SRC-1 CRT [3] | SRE activation response/phenotype in HepG2 [4] | ABCA1 induction response/phenotype in CCF cells [5] | Corepressor (NCOR2, SMRT2) displacement or stabilization, across LXR isoforms [6] | also measured
5 | 95.1% | 103% | 87.9% | 87.9% | CC(C)[C@@](O)(C(=O)N1CCC(C2CCN(c3ccc(C(=O)N(C)C)c(Cl)c3)CC2)CC1)C(F)(F)F [MK9, (R)–2-chloro-4-(1'-(2-hydroxy-3-methyl-2-(trifluoromethyl)butanoyl)-[4,4'-bipiperidin]–1-yl)-N,N-dimethylbenzamide] | highly LXRβ-selective; also recorded: most selective LXRβ agonists | activates lipogenesis in HepG2 cells | – | less effective or ineffective in displacement of corepressors from LXRα | ABCA1 and apoE protein levels in the brain [12]: Significant increases in ABCA1 and apoE protein levels in the brain; Plasma or liver TG [12]: not accompanied by significant changes in plasma or liver TG; Liver fat content ([13]; relative to control): no change in liver fat content; Increase in APOE and Aβ in cerebrospinal fluid (CSF) [13]: threefold
6 | 99.8% | 103% | 93.4% | 82% | C[C@H](CCOc1cccc(CC(=O)O)c1)N(Cc1cccc(C(F)(F)F)c1Cl)CC(c1ccccc1)c1ccccc1 [RGX-104] | – | – | – | strong agonist responses | Liver TG [14]: significantly increased liver TG; Plasma TG, LDL-C and VLDL-C [14]: dose-dependent increase; Plasma LDL, HDL and TG [15]: robust time-dependent increase in TG and LDL; Effect on NCOR2 binding to LXRα ([7]; monoplex CRT, absence of SRC1): displacement of NCOR2 from both LXR isoforms; Effect on NCOR2 binding to LXRβ ([8]; monoplex CRT, absence of SRC1): displacement of NCOR2 from both LXR isoforms

— paper PMC13286573, “Exploration of precision coregulator TR-FRET identifies diverse signatures for LXR ligands relevant to discovery of nonlipogenic ABCA1 inducers” (eLife, 2026)
